# Laboratory results: patent US10688099B2, “Methods for modulating the amount of RNA transcripts” (PTC Therapeutics, Inc., priority 2013, dated 2020)
# Tested on: human genes (total transcript abundance) in PNN 1-46 cells
# Test: RNA sequencing, total transcript abundance at the gene level, Compound vs DMSO control
# Format: cell-based
# Experimental: PNN 1-46 cells derived from a Type I SMA patient were treated with Compound 702 at 500 nM for 24 hours. RNA was purified with the RNeasy Mini Kit (Qiagen) for mRNA sequencing on HiSeq 2500 (Illumina Inc., San Diego, Calif.). The quality of the total RNA was assessed using UV spectrophotometry and agarose gel electrophoresis. Template DNA molecules suitable for cluster generation were prepared from 1 ug of total RNA samples using the TruSeq RNA Sample Preparation Kit v2 (Illumina Inc., San Diego, Calif.) according to the manufacturer's instructions. The size distribution of the libraries was estimated by electrophoresis on Agilent High Sensitivity Bioanalyzer microfluidic chips. The minimum and average sizes of the amplified libraries were determined to be >200 nucleotides and 300-340 nucleotides, respectively. Libraries were quantified using the KAPA Library Quantification Kit (KK4824, Kapa Biosystems, Boston, Mass.). The libraries were pooled at equimolar concentrations and diluted prior to loading onto the flow cell of the HiSeq 2500 (Illumina Inc., San Diego, Calif.) for both clustering and sequencing. The libraries were extended and bridge-amplified to create single sequence clusters using the TruSeq Rapid PE Cluster Kit—HS (Illumina Inc., San Diego, Calif.). Amplified clusters in the flow cell were then sequenced with 50-bp paired-end reads using the TruSeq Rapid SBS Kit—HS (Illumina Inc., San Diego, Calif.) in rapid run mode. Real time image analysis and base calling were performed on the HiSeq 2500 instrument using the HiSeq Sequencing Control Software (HCS). […]
# In order to estimate gene expression levels, paired-end RNAseq reads were subsequently mapped to RefSeq human transcripts (release 60) and the human genome (hg19) by using the short read aligner Bowtie2 (Langmead et al., 2012. Nature methods 9:357). The number of mapped reads for all transcript variants of a gene (counts) were combined into a single value and normalized denoted as rpkms (number of mapped reads per kilobase transcript per million sequenced reads, (Mortazavi et al., 2008. Nature methods 5:621)). The splice-site analysis was performed by mapping the paired-end RNASeq reads to RefSeq human transcripts using the alignment software GSNAP with default parameters and the option ‘sam-multiple-primaries’ in order to account for reads that were mapped multiple times to different splice variants. The number of reads spanning splice-sites was determined by applying the samtools mpileup software with default parameters for each transcript. Reads having an alignment start or end exactly on the splice-site were excluded from the analysis (Wu et al., 2005, Bioinformatics 21:1859; Wu et al., 2010, Bioinformatics 26:873; Li et al., 2009, Bioinformatics 25:2078). […]
compound,measurement,setting,value
CCN1CCC(c2cc(C)c3nc(-c4cc5c(C)nc(C)cn5n4)cc(=O)n3c2)CC1 [Compound 702],"genes up- or downregulated, respectively, at threshold |Log2FC| 1","500 nM vs DMSO control, 11,714 human genes with rpkm >1, FIG. 2B",six
same,change in total mRNA abundance of SMN2,"500 nM vs DMSO control, PNN 1-46, 24 hours, FIG. 2A",no change
same,Log2FC of total transcript expression of POLN (DNA polymerase nu),"500 nM vs DMSO control, only changed gene among the gene families of FIG. 3",> 1
same,deregulation in gene families involved in DNA or RNA metabolism or cell survival,"500 nM, 24 hours, PNN 1-46, FIG. 3",No deregulation
